# Measured values published in patent US20220395500A1, “SMALL MOLECULE ACTIVATORS OF INTERFERON REGULATORY FACTOR 3 AND METHODS OF USE THEREOF” (Neuralexo, Inc., priority 2020, published 2022).
# Legend:
# [1] = tested on: BV2 cells; test: Gene induction in BV2 cells (qtPCR); type: cell-based, mouse; conditions: 10 ug/ml, 3 hours, compared to 5′pppRNA
# Protocol: RNA was collected from cell pellets and qtPCR was performed with indicated primers. Data is depicted as mRNA fold-change versus vehicle. Values are normalized to actin and are presented as fold change over vehicle control.
# Total RNA isolated from brain cortex, or RNA from cell culture, was reverse transcribed using an Omniscript Reverse Transcription kit (Qiagen). Quantitative PCR was performed using the TaqMan Gene Expression Assays (Applied Biosystems) on an ABI-prism 7700. Results were normalized to β-actin expression and analyzed relative to appropriate controls. The relative quantification of the gene of interest was determined using the comparative CT method (2^−ΔΔCt)
# Since inflammatory pathways mediated by NF-κB are known to have negative effects on stroke outcome, the induction of key detrimental genes including TNF and IL-6 in response to drug treatment was evaluated. […] RNA was collected from cell pellets and qtPCR was performed with indicated primers. Values are normalized to actin and are presented as fold change over vehicle control.
# [2] = tested on: IP-10 in human monocyte-derived macrophages; test: IP-10 induction in human monocyte-derived macrophages (ELISA); type: cell-based; conditions: dose response
# Excerpt: FIG. 24 is a graph of NA-42 dose dependent IP-10 induction in human monocyte-derived macrophages. IP-10 expression was monitored by Human CXCL10/IP10 ELISA (R&D Systems, Minneapolis, Minn.) and is expressed as pg/ml. Shown are group means+/−standard deviation; ****p<0.0001.
# FIG. 25 is a graph of ND-13 dose dependent IP-10 induction in human monocyte-derived macrophages. IP-10 expression was monitored by Human CXCL10/IP10 ELISA (R&D Systems, Minneapolis, Minn.) and is expressed as pg/ml. Shown are group means+/−standard deviation; ****p<0.0001.
# As discussed above with regard to Example 19, target specificity of chemical entities corresponding to the ND and NA chemofamilies was examined by dose-dependent expression of IP-10 in mBMDMs. In this example, 23, target specificity of chemical entities corresponding to the ND and NA chemofamiles was examined by determining dose-dependent expression of IP-10 in human primary cells, specifically monocyte-derived macrophages. […] For FIGS. 24-25, IP-10 expression was monitored by Human CXCL10/IP10 ELISA (R&D Systems, Minneapolis, Minn.), and is expressed at FIGS. 24-25 as pg/ml.
# [3] = tested on: cytokines in mBMDMs (wild-type and IRF3 KO); test: Cytokine induction in mBMDMs (20-plex ProcartaPlex, Luminex); type: cell-based, mouse; conditions: for cytokine induction in mBMDMs (IL6, MCP3, Rantes, TNFa, MCP1, Mip1b, Mip1a, Gro-alpha) vs vehicle: wild-type and IRF3 KO mBMDMs
# Protocol: (§1) Cytokine induction is shown for both wild-type mouse mBMDMs and IRF3 KO mouse mBMDMs. Cytokine expression was measured using a cytokine 20-plex mouse ProcartaPlex kit (Invitrogen, Carlsbad, Calif.) for labeling of multiple cytokines within an individual sample and run on a Luminex (Austin, Tex.) 200 instrument. Data is expressed as pg/ml. Shown are group means+/−SEM; […], **p<0.01, ***p<0.001, ****p<0.0001.
# as §1, with “(Invitrogen)” for “(Invitrogen, Carlsbad, Calif.)”, “Luminex” for “Luminex (Austin, Tex.)”
# as §1, with “expression” for “expression was”, “(Invitrogen)” for “(Invitrogen, Carlsbad, Calif.)”, “Luminex” for “Luminex (Austin, Tex.)”
# Cytokine expression at each of FIGS. 22A-23B was monitored using a cytokine 20-plex mouse ProcartaPlex kit (Invitrogen, Carlsbad, Calif.) for labeling of multiple cytokines within an individual sample and run on a Luminex 200 instrument, and is expressed at FIGS. 22A-23B as pg/ml.
# [4] = tested on: IP-10 in mBMDMs (wild-type and IRF3 KO); test: IP-10 induction in mouse bone marrow derived macrophages (ELISA); type: cell-based; conditions: increasing concentrations, wild-type vs IRF3 knock-out cells
# Protocol: IP-10 levels were determined by mouse CXCL10/IP10 ELISA (Invitrogen, Carlsbad, Calif.) and are expressed as pg/ml. Data represents group mean+/−standard deviation.
# IP-10 expression was determined by mouse CXCL10/IP10 ELISA (Invitrogen, Carlsbad, Calif.), and is expressed as pg/ml. Data represents group mean+/−standard deviation.
# Target specificity of chemical entities corresponding to the ND and NA chemofamiles was examined by determining dose-dependent expression of IP10, a highly inducible, primary response gene that belongs to the C-X-C chemokine superfamily. […] IP-10 expression was monitored by a mouse CXCL10/IP10 ELISA (Invitrogen, Carlsbad, Calif.), and is expressed at FIG. 20 and FIG. 21 as pg/ml.
# [5] = tested on: J774-Dual cells; test: J774-Dual cytotoxicity; type: cell-based, mouse; conditions: Mouse Reporter Cell Line J774; read-out: J774 cytotox CC50
# Procedure, shortened: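 CC50 derived from 8-point concentration series in mouse J774-Dual reporter cells, with viability read by CellTiter-Glo in the same plate. Run in parallel with EC50 and ISRE:NFκB ratio determination for cross-species confirmation.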
SMILES,induction of IRF-regulated genes RSAD2 and IFIT1 [1],IP-10 induction in human monocyte-derived macrophages [2],off-target inflammatory activity in mBMDMs [3],"cytokine induction in mBMDMs (IL6, MCP3, Rantes, TNFa, MCP1, Mip1b, Mip1a, Gro-alpha) vs vehicle [3]",induction of IP-10 in mBMDMs [4],CC50 [5] [µM]
"Cc1ccc2c(=O)c3cccc(CC(=O)O)c3oc2c1C [DMXAA, 5,6-dimethylxanthenone-4-acetic acid]",most robust induction,–,–,–,–,–
"CCOc1cccc(COc2ccc(C(=O)Nc3ccc(N4CCN(C(=O)c5cccs5)CC4)cc3)cc2)c1 [NA-42, 4-((3-ethoxybenzyl)oxy)-N-(4-(4-(thiophene-2-carbonyl)piperazin-1-yl)phenyl)benzamide]",–,dose-dependent IP-10 induction,minimal off-target inflammatory activity,IRF3 dependent cytokine induction,IRF3 dependent induction,–
"COc1ccc(C(=O)Nc2cc(-c3nc4ccccc4s3)ccc2C)cc1[N+](=O)[O-] [ND52, N-[5-(1,3-benzothiazol-2-yl)-2-methylphenyl]-4-methoxy-3-nitrobenzamide]",–,–,–,–,–,101
"COc1ccc(C(=O)Nc2cc(-c3nc4cc(C)c(C)cc4o3)ccc2C)cc1[N+](=O)[O-] [ND-13, N-(5-(5,6-dimethylbenzo[d]oxazol-2-yl)-2-methylphenyl)-4-methoxy-3-nitrobenzamide]",–,dose-dependent IP-10 induction,minimal off-target inflammatory activity,IRF3 dependent cytokine induction,IRF3 dependent induction,–
COc1ccc(C(=O)Nc2cc(-c3nc4ccccc4s3)ccc2C)cc1[N+](=O)[O-] [ND-38],–,–,–,–,–,> 25
